Converted amounts (≈) assume the structure as drawn.
Legend:
Assay type in all cases: functional
[1] = tested on: KAT-4 cell line; experiment: Inhibitory activity against growth of human thyroid cancer cell line KAT-4 was determined
[2] = tested on: FaDu; experiment: Inhibitory activity against growth of human pharynx cancer cell line FADU was determined
[3] = tested on: NCI-H460; experiment: Inhibitory activity against growth of human lung NSC cancer cell line NCI-H460 was determined
[4] = tested on: P388; experiment: Effective dose that causes inhibition of growth of P388 leukemia cells was determined; conditions: Mus musculus, read-out: ED50 (the source's name)
[5] = tested on: P388; experiment: Inhibitory activity against growth of P388 leukemia cells was determined; conditions: Mus musculus
[6] = tested on: DU-145; experiment: Inhibitory activity against growth of human prostate cancer cell line DU-145 was determined
[7] = tested on: BXPC-3; experiment: Inhibitory activity against growth of human pancreatic cancer cell line BXPC-3 was determined
[8] = tested on: SW-1736; experiment: Inhibitory activity against growth of human thyroid cancer cell line SW1736 was determined
[9] = tested on: DU-145; experiment: Inhibitory activity against growth of human prostate cancer cell line DU-145 was determined.
[10] = tested on: RPMI-7951; experiment: Inhibitory activity against growth of human melanomic cancer cell line RPMI-7951 was determined
[11] = tested on: U-251; experiment: Inhibitory activity against growth of human CNS cancer cell line U251 was determined

Row | GI50 [3] [µg/mL] | EC50 [4] [µg/mL] | GI50 [5] [µg/mL] | GI50 [6] [µg/mL] | GI50 [7] [µg/mL] | GI50 [8] [µg/mL] | GI50 [9] [µg/mL] | GI50 [11] [µg/mL] | Compound | GI50 [1] [µg/mL] | GI50 [2] [µg/mL] | GI50 [10] [µg/mL]
1 | 1.8 (≈ 4.66 µM) | 4.87 (≈ 12.6 µM) | 4.9 (≈ 12.7 µM) | 1.6 (≈ 4.14 µM) | 1.6 (≈ 4.14 µM) | 2.1 (≈ 5.43 µM) |  |  | CC1(C)CCC[C@]2(C)[C@H]3C[C@@H](O)[C@]4(C)c5cocc5[C@H](O)C[C@H]4[C@]3(C)CC[C@@H]12 [SESTERSTATIN 4] | 2 (≈ 5.17 µM) | 2 (≈ 5.17 µM) | 
2 | 2.5 (≈ 6.47 µM) | > 10 | > 10 |  | 2.2 (≈ 5.69 µM) |  | 1.9 (≈ 4.91 µM) | 1.9 (≈ 4.91 µM) | CC1(C)CCC[C@]2(C)[C@H]3C[C@@H](O)[C@]4(C)c5cocc5[C@@H](O)C[C@H]4[C@]3(C)CC[C@@H]12 [SESTERSTATIN 5] |  | 1.9 (≈ 4.91 µM) | 2.1 (≈ 5.43 µM)

Reference: ChEMBL document CHEMBL1130918, “Antineoplastic agents. 397: Isolation and structure of sesterstatins 4 and 5 from Hyrtios erecta (the Republic of Maldives)” (1998)
